In ChEMBL document CHEMBL5143680, “Cytotoxic Bromine- and Iodine-Containing Cytochalasins Produced by the Mangrove Endophytic Fungus Phomopsis sp. QYM-13 Using the OSMAC Approach” (J Nat Prod, 2022):

Experiments:
SNB-19 = assay: Cytotoxicity against human SNB-19 cells measured after 72 hrs by MTT assay; format: functional, cell-based; conditions: SNB-19, 72 h
A549 = assay: Cytotoxicity against human A549 cells measured after 72 hrs by MTT assay; format: functional, cell-based; conditions: A549, 72 h
MDA-MB-435 = assay: Cytotoxicity against human MDA-MB-435 cells measured after 72 hrs by MTT assay; format: functional, cell-based; conditions: MDA-MB-435, 72 h
[1] = Cytotoxicity against African green monkey Vero cells measured after 72 hrs by MTT assay; format: toxicity, cell-based; conditions: African green monkey (Chlorocebus sabaeus)
MDA-MB-231 = assay: Cytotoxicity against human MDA-MB-231 cells measured after 72 hrs by MTT assay; format: functional, cell-based; conditions: MDA-MB-231, 72 h
HepG2 = assay: Cytotoxicity against human HepG2 cells measured after 72 hrs by MTT assay; format: functional, cell-based; conditions: HepG2, 72 h

SMILES | IC50 (SNB-19) [µM] | IC50 (A549) [µM] | IC50 (MDA-MB-435) [µM] | IC50 at 72 h [1] [µM] | IC50 (MDA-MB-231) [µM] | IC50 (HepG2) [µM]
CC1=C[C@@H]2/C=C/C[C@H](C)C[C@@](C)(O)[C@@H]3O[C@H]3C(=O)[C@]23C(=O)N[C@@H](Cc2ccccc2)[C@@H]3[C@@H]1C | > 50 | 28 | 32 | 29 | 11 | > 50
C=C1[C@@H](C)[C@H]2[C@H](Cc3ccccc3)NC(=O)[C@]23[C@H](OC(C)=O)[C@@H]2O[C@H]2[C@](C)(O)C[C@@H](C)C/C=C/[C@H]3[C@@H]1O | > 50 | > 50 | 42 | > 50 | > 50 | > 50
C=C1[C@@H](C)[C@H]2[C@H](Cc3ccccc3)NC(=O)[C@@]23[C@H]2[C@@H]4[C@H](C(C)=C[C@@H](C)C[C@H]4O[C@H]12)[C@H]3O | > 50 | > 50 | > 50 | > 50 | > 50 | > 50
C=C1[C@@H](C)[C@H]2[C@H](Cc3ccccc3)NC(=O)[C@@]23[C@H]2[C@@H]4[C@H](C(C)=C[C@@H](C)C[C@H]4O[C@H]12)[C@@H](I)[C@H]3O | > 50 | > 50 | > 50 | 39 | > 50 | > 50
C=C1/C=C/[C@@H](OC(C)=O)[C@@]23C(=O)N[C@@H](Cc4ccccc4)[C@@H]2[C@H](C)C(=C)[C@@H](O)[C@@H]3/C=C/C[C@H](C)C1 | 16 | > 50 | 11 | 14 | 35 | > 50
CC1=C[C@@H]2/C=C/C[C@H](C)C[C@@](C)(O)/C=C/[C@@H](O)[C@]23C(=O)N[C@@H](Cc2ccccc2)[C@@H]3[C@@H]1C | > 50 | 38 | 38 | 44 | > 50 | > 50
CC(=O)O[C@@H]1/C=C/[C@](C)(O)C[C@@H](C)C/C=C/[C@H]2C=C(C(=O)O)[C@@H](C)[C@H]3[C@H](Cc4ccccc4)NC(=O)[C@]321 | > 50 | > 50 | > 50 | > 50 | > 50 | > 50
CC(=O)O[C@@H]1/C=C/[C@](C)(O)C[C@@H](C)C/C=C/[C@H]2C=C(CO)[C@@H](C)[C@H]3[C@H](Cc4ccccc4)NC(=O)[C@]321 | 6.9 | 38 | 8.2 | 22 | 42 | > 50
C=C1[C@@H](C)[C@H]2[C@H](Cc3ccccc3)NC(=O)[C@@]23[C@@H]([C@@H]2[C@H](/C=C(/C)C[C@@H](C)C[C@H]2Br)[C@H]3OC(C)=O)[C@@H]1O | > 50 | > 50 | 7.4 | 18 | 44 | > 50
CC(=O)O[C@@H]1/C=C/[C@](C)(O)C[C@@H](C)C/C=C/[C@H]2C=C(C)[C@@H](C)[C@H]3[C@H](Cc4ccccc4)NC(=O)[C@]321 | > 50 | > 50 | 34 | > 50 | > 50 | > 50
CC1=C[C@@H]2/C=C/C[C@H](C)C[C@H](C)[C@@H]3O[C@H]3C(=O)[C@]23C(=O)N[C@@H](Cc2ccccc2)[C@@H]3[C@@H]1C | > 50 | > 50 | 44 | > 50 | > 50 | > 50
C=C1[C@@H](C)[C@H]2[C@H](Cc3ccccc3)NC(=O)[C@]23[C@H](OC(C)=O)/C=C/[C@](C)(O)C[C@@H](C)C/C=C/[C@H]3[C@@H]1O | 26 | > 50 | 0.2 | 40 | 42 | > 50
C[C@H]1C/C=C/[C@H]2C=C(CO)[C@@H](C)[C@H]3[C@H](Cc4ccccc4)NC(=O)[C@]32[C@H](O)/C=C/[C@](C)(O)C1 | > 50 | > 50 | 25 | > 50 | > 50 | > 50
C=C1[C@@H](C)[C@H]2[C@H](Cc3ccccc3)NC(=O)[C@]23[C@H](O)/C=C/[C@](C)(O)C[C@@H](C)C/C=C/[C@H]3[C@@H]1O | 6.8 | > 50 | 4.9 | > 50 | 31 | > 50
C=C1[C@@H](C)[C@H]2[C@H](Cc3ccccc3)NC(=O)[C@@]23[C@@H]([C@@H]2[C@H](/C=C(/C)C[C@@H](C)C[C@H]2I)[C@H]3OC(C)=O)[C@@H]1O | > 50 | 33 | 47 | 29 | 43 | 47
C=C1[C@@H](C)[C@H]2[C@H](Cc3ccccc3)NC(=O)[C@@]23[C@H]2[C@@H]4[C@H](C(C)=C[C@@H](C)C[C@H]4O[C@H]12)[C@H]3OC(C)=O | > 50 | > 50 | 36 | 34 | > 50 | > 50
C=C1[C@@H](C)[C@H]2[C@H](Cc3ccccc3)NC(=O)[C@@]23[C@@H]([C@@H]2[C@H](/C=C(/C)C[C@@H](C)C[C@H]2O)[C@H]3OC(C)=O)[C@@H]1O | > 50 | > 50 | 45 | > 50 | > 50 | > 50
C=C1[C@@H](C)[C@H]2[C@H](Cc3ccccc3)NC(=O)[C@]23[C@H](OC(C)=O)/C=C/C(C)=C\[C@@H](C)C/C=C/[C@H]3[C@@H]1O | 42 | > 50 | 12 | 25 | 45 | > 50
